Data from US7638637B2, “Orally available sphingosine 1-phosphate receptor agonists and antagonists” (University of Virginia Patent Foundation, priority 2003, dated 2009).
“Also recorded” adds a separate entry of the source. Blank lines part the entries; values can stand above or below the compound they belong to.

Tests used:
Format in all cases: biochemical
S1P receptors [1] = test system: T1, S1P receptors; test: [γ-35S]GTP binding assay, recombinant S1P receptors in general; conditions: various S1P receptors
T1 construct: other: various S1P receptors
Protocol: (§1) The same results were obtained regardless of whether the recombinant receptor used exogenous G proteins (HEK293T cells) or endogenous G proteins (RH7777 cells). In addition, insect Sf9 cells infected with recombinant baculovirus encoding receptors (e.g. […] The Sf9 cell and HEK293T cell membranes gave similar results. Furthermore, the activities measured in the broken cell assay predicted the responses seen in whole cell assays. […] After incubating for 30 minutes at 30° C., bound radionuclide was separated from free by filtration through Whatman GF/C paper using a Brandel Cell Harvester (Gaithersburg, Md.). Assay of cAMP accumulation was performed as described previously (See Im et al., J. Biol. […] Assays were conducted on populations of 5×10^5 cells stimulated with 1 μM forskolin in the presence of the phosphodiesterase inhibitor isomethylbutylxanthine (IBMX, 1 mM) for 15 minutes. cAMP was measured by automated radioimmunoassay.

hS1P2 = biological target: T2, hS1P2 (Homo sapiens, UniProt O95136); test: [γ-35S]GTP binding assay, HEK293T cell membranes, S1P2; conditions: GTPγS binding; for EC50: read-out: EC50 Values (nM) for S1P Analogues at Recombinant S1P Receptors, hS1P2, overexpressed human HEK293 cells
T2 construct: expressed in transfected cells; host or cells: HEK293T cells (transient)
Protocol: (§2) Human or mouse S1P5 DNA was mixed with an equal amount of DNA encoding a rat Gi2R protein as well as DNAs encoding cow β1 and γ2 proteins and used to transfect monolayers of HEK293T cells using the calcium phosphate precipitate method. After 60 hours, cells were harvested, and microsomes were prepared, aliquoted, and stored at −70° C. until use.
(§3) After incubating for 30 minutes at 30° C., bound radionuclide was separated from free by filtration through Whatman GF/C paper using a Brandel Cell Harvester (Gaithersburg, Md.).
(§4) Assay of cAMP accumulation was performed as described previously (See Im et al., J. Biol. Chem. 275, 14281-14286 (2000), the disclosure of which is incorporated herein). Assays were conducted on populations of 5×10^5 cells stimulated with 1 μM forskolin in the presence of the phosphodiesterase inhibitor isomethylbutylxanthine (IBMX, 1 mM) for 15 minutes. cAMP was measured by automated radioimmunoassay. The GTPγS studies were performed using zebrafish S1P1 overexpressed rat RH-7777 and human hS1P1, hS1P2, hS1P3 and hS1P5 overexpressed human HEK293 cells.
(§5) An additional series of compounds was tested using the GTPCS binding assay described in Example 2 and in Im et al., J. Biol. Chem. 275, 14281-14286 (2000), the disclosure of which is incorporated herein).

hS1P4 = biological target: T3, hS1P4 (Homo sapiens, UniProt O95977); test: [γ-35S]GTP binding assay, HEK293T cell membranes, S1P4; conditions: GTPγS binding
T3 construct: expressed in transfected cells; host or cells: HEK293T cells (transient)
T3 sequence (O95977 1-384): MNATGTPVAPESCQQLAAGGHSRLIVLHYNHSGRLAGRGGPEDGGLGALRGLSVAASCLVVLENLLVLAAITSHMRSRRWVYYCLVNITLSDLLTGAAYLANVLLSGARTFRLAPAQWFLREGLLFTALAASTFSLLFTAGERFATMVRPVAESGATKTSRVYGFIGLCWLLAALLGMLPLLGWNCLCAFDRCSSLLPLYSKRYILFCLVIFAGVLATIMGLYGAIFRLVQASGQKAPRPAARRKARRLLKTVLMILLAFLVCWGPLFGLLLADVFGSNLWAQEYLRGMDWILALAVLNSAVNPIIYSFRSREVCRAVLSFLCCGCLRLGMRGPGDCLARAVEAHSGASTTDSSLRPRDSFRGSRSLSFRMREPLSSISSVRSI
Protocol: as §3, §5

hS1P3 = biological target: T4, hS1P3 (Homo sapiens, UniProt Q99500); test: [γ-35S]GTP binding assay, HEK293T cell membranes, S1P3; conditions: GTPγS binding; for EC50: read-out: EC50 Values (nM) for S1P Analogues at Recombinant S1P Receptors, hS1P3, overexpressed human HEK293 cells
T4 construct: expressed in transfected cells; host or cells: HEK293T cells (transient)
Protocol: as §2, §3, §4, §5

hS1P1 = biological target: T5, hS1P1 (Homo sapiens, UniProt P21453); test: [γ-35S]GTP binding assay, HEK293T cell membranes, S1P1; conditions: GTPγS binding; for EC50: read-out: EC50 Values (nM) for S1P Analogues at Recombinant S1P Receptors, hS1P1, overexpressed human HEK293 cells
T5 construct: expressed in transfected cells; host or cells: HEK293T cells (transient)
Protocol: as §2, §3, §4, §5

mS1P5 = biological target: T6, mS1P5 (Mus musculus, UniProt Q91X56); test: [γ-35S]GTP binding assay, mouse S1P5; conditions: read-out: EC50 Values (nM) for S1P Analogues at Recombinant S1P Receptors, mS1P5, GTPγS binding
T6 construct: expressed in transfected cells; host or cells: HEK293T cells (transient)
Protocol: as §2, §3, §4

zS1P1 = biological target: T7, zS1P1 (Danio rerio, UniProt Q9DDK4); test: [γ-35S]GTP binding assay, zebrafish S1P1 overexpressed in rat RH-7777 cells; conditions: read-out: EC50 Values (nM) for S1P Analogues at Recombinant S1P Receptors, zS1P1; GTPγS binding; zebrafish S1P1 overexpressed rat RH-7777
T7 construct: expressed in transfected cells; host or cells: rat hepatoma RH-7777 cells
T7 sequence (Q9DDK4 1-362): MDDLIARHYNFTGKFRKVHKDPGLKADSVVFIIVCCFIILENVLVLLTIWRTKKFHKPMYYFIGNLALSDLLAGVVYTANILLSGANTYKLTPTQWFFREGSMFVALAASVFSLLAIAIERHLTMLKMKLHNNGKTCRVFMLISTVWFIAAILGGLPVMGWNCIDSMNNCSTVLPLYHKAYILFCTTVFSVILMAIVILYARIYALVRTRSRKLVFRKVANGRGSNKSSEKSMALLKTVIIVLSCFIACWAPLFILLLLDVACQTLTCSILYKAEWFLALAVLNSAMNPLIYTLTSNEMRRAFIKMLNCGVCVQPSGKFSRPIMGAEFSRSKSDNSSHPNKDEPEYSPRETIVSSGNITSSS
Protocol: as §3
Rat hepatoma RH7777 cell monolayers were transfected with human or mouse S1P5/pCR3.1 DNA using the calcium phosphate precipitate method, and clonal populations expressing the neomycin phosphotransferase gene were selected by addition of geneticin (G418) to the culture medium. The RH7777 cells were grown in monolayers at 37° C. in a 5% CO2/95% air atmosphere in growth medium consisting of 90% MEM, […], 2 mM glutamine, and 1 mM sodium pyruvate.
as §4

hS1P5 = biological target: T8, hS1P5 (Homo sapiens, UniProt Q9H228); test: [γ-35S]GTP binding assay, HEK293T cell membranes, S1P5; conditions: read-out: EC50 Values (nM) for S1P Analogues at Recombinant S1P Receptors, hS1P5; GTPγS binding; overexpressed human HEK293 cells
T8 construct: expressed in transfected cells; host or cells: HEK293T cells (transient, calcium phosphate)
Protocol: as §2, §3, §4, §5

S1P receptors [2] = test: [γ-35S]GTP binding assay, recombinant S1P receptors in general; conditions: each receptor
Protocol: as §1

T2 sequence (O95136 whole entry): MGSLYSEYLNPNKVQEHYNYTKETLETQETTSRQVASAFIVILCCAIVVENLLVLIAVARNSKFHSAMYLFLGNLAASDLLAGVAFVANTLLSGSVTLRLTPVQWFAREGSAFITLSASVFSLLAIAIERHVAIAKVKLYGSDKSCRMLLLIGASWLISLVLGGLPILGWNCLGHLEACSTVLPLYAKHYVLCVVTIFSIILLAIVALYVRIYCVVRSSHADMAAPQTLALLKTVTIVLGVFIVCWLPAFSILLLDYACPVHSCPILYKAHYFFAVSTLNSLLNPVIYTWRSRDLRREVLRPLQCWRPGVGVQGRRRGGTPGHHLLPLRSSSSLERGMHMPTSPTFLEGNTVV
T5 sequence (P21453 whole entry): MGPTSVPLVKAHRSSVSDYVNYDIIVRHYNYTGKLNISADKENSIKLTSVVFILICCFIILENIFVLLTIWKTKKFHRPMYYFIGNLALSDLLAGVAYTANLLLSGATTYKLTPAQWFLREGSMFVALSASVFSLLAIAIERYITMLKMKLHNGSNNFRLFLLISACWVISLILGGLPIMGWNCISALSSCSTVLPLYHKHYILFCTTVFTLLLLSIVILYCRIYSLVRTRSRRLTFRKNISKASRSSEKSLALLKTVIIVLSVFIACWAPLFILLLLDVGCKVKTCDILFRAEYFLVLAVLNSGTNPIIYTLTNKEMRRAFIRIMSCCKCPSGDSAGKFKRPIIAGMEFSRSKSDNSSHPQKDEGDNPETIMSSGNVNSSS
T4 sequence (Q99500 whole entry): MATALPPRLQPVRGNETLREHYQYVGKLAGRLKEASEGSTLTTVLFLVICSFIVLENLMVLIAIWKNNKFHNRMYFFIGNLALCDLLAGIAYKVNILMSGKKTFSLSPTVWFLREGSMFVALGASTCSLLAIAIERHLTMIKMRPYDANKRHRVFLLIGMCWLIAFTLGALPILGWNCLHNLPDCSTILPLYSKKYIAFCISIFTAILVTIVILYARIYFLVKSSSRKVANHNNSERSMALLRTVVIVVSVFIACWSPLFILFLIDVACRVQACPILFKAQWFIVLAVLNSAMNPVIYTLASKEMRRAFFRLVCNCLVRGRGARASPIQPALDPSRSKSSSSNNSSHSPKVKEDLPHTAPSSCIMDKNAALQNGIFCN
T8 sequence (Q9H228 whole entry): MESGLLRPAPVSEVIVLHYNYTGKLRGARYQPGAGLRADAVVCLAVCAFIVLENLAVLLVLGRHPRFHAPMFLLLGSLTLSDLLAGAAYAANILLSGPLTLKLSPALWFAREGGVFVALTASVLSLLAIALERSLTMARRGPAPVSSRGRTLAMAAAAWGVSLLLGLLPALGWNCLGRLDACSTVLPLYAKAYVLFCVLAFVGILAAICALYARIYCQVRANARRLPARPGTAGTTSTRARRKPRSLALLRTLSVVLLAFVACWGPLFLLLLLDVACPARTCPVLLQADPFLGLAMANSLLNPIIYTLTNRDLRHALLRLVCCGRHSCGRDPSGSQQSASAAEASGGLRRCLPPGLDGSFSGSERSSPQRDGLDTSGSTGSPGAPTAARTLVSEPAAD
T6 sequence (Q91X56 whole entry): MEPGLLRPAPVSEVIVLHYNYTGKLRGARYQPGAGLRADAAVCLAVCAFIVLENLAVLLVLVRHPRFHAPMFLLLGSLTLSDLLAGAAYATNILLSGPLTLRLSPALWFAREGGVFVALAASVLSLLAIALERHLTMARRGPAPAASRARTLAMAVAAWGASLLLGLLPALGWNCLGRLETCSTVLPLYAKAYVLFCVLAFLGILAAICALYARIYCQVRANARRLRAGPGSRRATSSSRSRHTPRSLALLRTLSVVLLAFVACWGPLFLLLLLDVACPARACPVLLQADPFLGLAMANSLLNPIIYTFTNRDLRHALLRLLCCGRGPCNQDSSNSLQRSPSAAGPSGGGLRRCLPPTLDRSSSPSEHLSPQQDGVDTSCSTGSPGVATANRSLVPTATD

SMILES: CCCCCCCCCCc1cccc(NC(=O)[C@H](N)CO)c1 [VPC23065]
- agonist activity at S1P receptors (S1P receptors [1]): significant agonist activity
- activity at the S1P2 receptor (hS1P2): inactive; also recorded: failed to show significant activity
- agonist activity at the S1P4 receptor (hS1P4): good agonist activity

SMILES: CCCCCCCCCCCCCCNC(=O)[C@H](N)COP(=O)(O)O [VPC22135]
- potency compared with S1P at the human S1P3 receptor (hS1P3): approached the potency of S1P
- potency compared with S1P at the human S1P1 receptor (hS1P1): approached the potency of S1P

SMILES: CCCCCCc1cccc(NC(=O)[C@H](N)COP(=O)(O)O)c1 [VPC23031]
- agonism or inverse agonism (antagonism) at the S1P3 receptor (hS1P3): inverse agonists
- activity at the S1P2 receptor (hS1P2): inactive; also recorded: failed to show significant activity

SMILES: CCCCCCCCCCCCCCOC(=O)[C@@H](N)COP(=O)(O)O [VPC22053]
- EC50 (mS1P5): 2010 nM
- EC50 (zS1P1): > 5000 nM
- less potent than enantiomer VPC22135 at the S1P3 receptor (hS1P3): more than 1 log order
- EC50 (hS1P3): 862 nM
- EC50 (hS1P2): 2680 nM
- less potent than enantiomer VPC22135 at the S1P1 receptor (hS1P1): more than 1 log order
- EC50 (hS1P1): 397 nM
- EC50 (hS1P5): 1610 nM

SMILES: CCCCCCCCCCc1cccc(NC(=O)[C@H](N)COP(=O)(O)O)c1 [VPC23069]
- agonism or inverse agonism (antagonism) at the S1P3 receptor (hS1P3): agonism
- activity at the S1P2 receptor (hS1P2): inactive; also recorded: failed to show significant activity

SMILES: CCCCCCCCCCCCCCNC(=O)[C@@H](N)COP(=O)(O)O [VPC22051]
- EC50 (mS1P5): > 5000 nM
- EC50 (zS1P1): > 5000 nM
- EC50 (hS1P3): 602 nM
- EC50 (hS1P2): 2760 nM
- EC50 (hS1P1): 322 nM
- EC50 (hS1P5): > 5000 nM

SMILES: CCCCCCCCCCCCC/C=C/[C@@H](O)[C@@H](N)COP(=O)(O)O [Compound S1P, Sphingosine-1-phosphate, reference compound]
- increase of GTPγS binding at each receptor (S1P receptors [2]): 2-5 fold

SMILES: CCCCCCCCc1cccc(NC(=O)[C@H](N)COP(=O)(O)O)c1 [VPC23019]
- agonism or inverse agonism (antagonism) at the S1P3 receptor (hS1P3): inverse agonists
- activity at the S1P2 receptor (hS1P2): inactive; also recorded: failed to show significant activity
- antagonism at S1P1 (hS1P1; competition with S1P): antagonism

Continued, in another order:

- agonism or inverse agonism (antagonism) at the S1P3 receptor (hS1P3): agonism
SMILES: CCCCCCCCCc1cccc(NC(=O)[C@H](N)COP(=O)(O)O)c1 [VPC23079]
- activity at the S1P2 receptor (hS1P2): inactive; also recorded: failed to show significant activity

- agonist activity at S1P receptors (S1P receptors [1]): significant agonist activity
- agonist activity at the S1P4 receptor (hS1P4): good agonist activity
SMILES: CCCCCCCCc1ccccc1NC(=O)[C@H](N)CO [VPC23087]
- activity at the S1P2 receptor (hS1P2): inactive; also recorded: failed to show significant activity

- agonism or inverse agonism (antagonism) at the S1P3 receptor (hS1P3): inverse agonists
SMILES: CCCCCCCCc1ccccc1NC(=O)[C@H](N)COP(=O)(O)O [VPC23089]
- activity at the S1P2 receptor (hS1P2): inactive; also recorded: failed to show significant activity

- agonist activity at S1P receptors (S1P receptors [1]): significant agonist activity
- agonist activity at the S1P4 receptor (hS1P4): good agonist activity
SMILES: CCCCCCCCCc1cccc(NC(=O)[C@H](N)CO)c1 [VPC23075]
- activity at the S1P2 receptor (hS1P2): inactive; also recorded: failed to show significant activity
